Laboratory results: ChEMBL document CHEMBL5291721, “A preclinical secondary pharmacology resource illuminates target-adverse drug reaction associations of marketed drugs” (Nat Commun, 2023)

Assays:
Histamine H3 receptor = Histamine H3 receptor (Homo sapiens, UniProt Q9Y5N1)
[1] = target: T1, 5-hydroxytryptamine receptor 3A (Homo sapiens, UniProt P46098); assay type: functional
T1 sequence (P46098 whole entry): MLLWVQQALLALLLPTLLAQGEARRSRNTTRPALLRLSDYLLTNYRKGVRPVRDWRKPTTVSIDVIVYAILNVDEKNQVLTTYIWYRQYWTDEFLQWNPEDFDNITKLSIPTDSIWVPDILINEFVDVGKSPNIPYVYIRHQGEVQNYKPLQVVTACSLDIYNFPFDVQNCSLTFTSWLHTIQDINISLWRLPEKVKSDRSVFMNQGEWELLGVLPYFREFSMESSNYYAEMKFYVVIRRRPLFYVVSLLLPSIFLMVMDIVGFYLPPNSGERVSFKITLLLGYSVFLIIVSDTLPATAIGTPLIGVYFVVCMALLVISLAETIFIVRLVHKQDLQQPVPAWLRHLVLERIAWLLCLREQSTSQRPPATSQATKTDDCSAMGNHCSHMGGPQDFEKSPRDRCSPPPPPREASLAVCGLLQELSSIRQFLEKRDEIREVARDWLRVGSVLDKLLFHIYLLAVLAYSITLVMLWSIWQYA

[2] = target: Delta-type opioid receptor (Homo sapiens, UniProt P41143)
Motilin receptor = Motilin receptor (Homo sapiens, UniProt O43193)
[3] = target: T2, Amine oxidase [flavin-containing] A (Homo sapiens, UniProt P21397); assay type: functional
T2 sequence (P21397 whole entry): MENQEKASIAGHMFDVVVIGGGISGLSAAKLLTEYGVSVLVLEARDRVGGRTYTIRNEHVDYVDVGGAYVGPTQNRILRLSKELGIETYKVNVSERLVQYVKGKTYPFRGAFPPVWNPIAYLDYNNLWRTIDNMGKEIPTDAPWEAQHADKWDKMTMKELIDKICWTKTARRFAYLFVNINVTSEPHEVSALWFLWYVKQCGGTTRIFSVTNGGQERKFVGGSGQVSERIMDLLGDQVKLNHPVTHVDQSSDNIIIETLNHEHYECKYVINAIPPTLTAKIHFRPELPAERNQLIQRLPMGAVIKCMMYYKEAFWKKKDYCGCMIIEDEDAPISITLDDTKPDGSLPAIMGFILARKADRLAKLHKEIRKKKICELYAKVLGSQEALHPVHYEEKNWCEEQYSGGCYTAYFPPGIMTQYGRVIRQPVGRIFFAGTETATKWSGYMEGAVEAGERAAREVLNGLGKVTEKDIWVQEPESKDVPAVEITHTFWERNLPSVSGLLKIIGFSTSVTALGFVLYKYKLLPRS

[4] = target: Neuronal acetylcholine receptor subunit alpha-4 (Homo sapiens, UniProt P43681)
[5] = target: Muscarinic acetylcholine receptor M3 (Homo sapiens, UniProt P20309)
Estrogen receptor = target: T3, Estrogen receptor (Homo sapiens, UniProt P03372)
T3 sequence (P03372 whole entry): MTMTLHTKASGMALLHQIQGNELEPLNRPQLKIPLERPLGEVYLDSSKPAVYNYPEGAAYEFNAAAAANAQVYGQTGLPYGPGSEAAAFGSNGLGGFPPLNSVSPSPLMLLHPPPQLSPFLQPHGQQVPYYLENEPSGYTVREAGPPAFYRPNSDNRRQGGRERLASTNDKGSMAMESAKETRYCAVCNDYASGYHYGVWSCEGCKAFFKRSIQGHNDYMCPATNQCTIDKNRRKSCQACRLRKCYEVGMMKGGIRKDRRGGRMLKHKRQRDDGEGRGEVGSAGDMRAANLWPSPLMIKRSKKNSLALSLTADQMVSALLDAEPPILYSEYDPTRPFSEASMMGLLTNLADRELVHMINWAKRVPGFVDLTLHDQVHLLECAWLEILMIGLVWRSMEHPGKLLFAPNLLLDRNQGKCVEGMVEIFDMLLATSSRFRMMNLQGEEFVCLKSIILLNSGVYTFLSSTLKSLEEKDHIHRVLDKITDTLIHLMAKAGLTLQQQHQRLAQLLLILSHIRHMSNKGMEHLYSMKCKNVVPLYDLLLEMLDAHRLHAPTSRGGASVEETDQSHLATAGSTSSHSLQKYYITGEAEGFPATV

[6] = target: T4, Alpha-2B adrenergic receptor (Homo sapiens, UniProt P18089)
T4 sequence (P18089 whole entry): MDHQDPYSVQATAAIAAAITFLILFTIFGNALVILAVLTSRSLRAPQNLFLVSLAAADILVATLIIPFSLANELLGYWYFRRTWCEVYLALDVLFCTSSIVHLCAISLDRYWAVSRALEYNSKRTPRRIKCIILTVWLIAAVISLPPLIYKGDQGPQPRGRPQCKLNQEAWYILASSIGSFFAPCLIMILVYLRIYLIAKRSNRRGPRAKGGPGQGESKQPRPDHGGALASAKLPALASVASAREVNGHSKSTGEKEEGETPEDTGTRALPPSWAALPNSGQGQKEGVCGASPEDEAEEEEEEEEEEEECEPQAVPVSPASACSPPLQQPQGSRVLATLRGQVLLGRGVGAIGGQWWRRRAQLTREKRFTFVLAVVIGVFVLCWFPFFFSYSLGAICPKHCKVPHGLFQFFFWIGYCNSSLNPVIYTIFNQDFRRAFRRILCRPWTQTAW

D(3) dopamine receptor = D(3) dopamine receptor (Homo sapiens, UniProt P35462)
Adenosine receptor A1 = target: T5, Adenosine receptor A1 (Homo sapiens, UniProt P30542)
T5 sequence (P30542 whole entry): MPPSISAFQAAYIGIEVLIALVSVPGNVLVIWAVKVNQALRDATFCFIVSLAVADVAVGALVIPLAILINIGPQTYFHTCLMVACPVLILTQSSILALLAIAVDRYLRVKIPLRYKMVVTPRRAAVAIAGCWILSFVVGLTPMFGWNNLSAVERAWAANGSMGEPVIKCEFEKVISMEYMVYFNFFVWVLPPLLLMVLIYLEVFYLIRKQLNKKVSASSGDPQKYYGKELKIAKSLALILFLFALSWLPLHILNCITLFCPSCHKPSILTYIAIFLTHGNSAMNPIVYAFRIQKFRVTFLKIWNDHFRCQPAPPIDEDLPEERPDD
Also: assay procedure not described here.

Chain of Motilin receptor (O43193 whole entry): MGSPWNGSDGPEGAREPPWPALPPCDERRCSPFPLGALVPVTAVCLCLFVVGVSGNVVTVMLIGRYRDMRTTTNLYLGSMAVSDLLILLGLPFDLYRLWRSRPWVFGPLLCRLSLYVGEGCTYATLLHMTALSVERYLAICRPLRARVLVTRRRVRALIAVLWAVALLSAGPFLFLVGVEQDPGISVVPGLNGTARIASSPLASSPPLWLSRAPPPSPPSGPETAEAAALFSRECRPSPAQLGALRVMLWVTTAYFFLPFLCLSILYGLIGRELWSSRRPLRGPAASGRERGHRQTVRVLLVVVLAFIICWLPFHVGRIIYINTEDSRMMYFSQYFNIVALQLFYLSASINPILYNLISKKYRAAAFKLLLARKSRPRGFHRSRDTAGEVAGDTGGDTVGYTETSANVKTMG
Chain of Neuronal acetylcholine receptor subunit alpha-4 (P43681 whole entry): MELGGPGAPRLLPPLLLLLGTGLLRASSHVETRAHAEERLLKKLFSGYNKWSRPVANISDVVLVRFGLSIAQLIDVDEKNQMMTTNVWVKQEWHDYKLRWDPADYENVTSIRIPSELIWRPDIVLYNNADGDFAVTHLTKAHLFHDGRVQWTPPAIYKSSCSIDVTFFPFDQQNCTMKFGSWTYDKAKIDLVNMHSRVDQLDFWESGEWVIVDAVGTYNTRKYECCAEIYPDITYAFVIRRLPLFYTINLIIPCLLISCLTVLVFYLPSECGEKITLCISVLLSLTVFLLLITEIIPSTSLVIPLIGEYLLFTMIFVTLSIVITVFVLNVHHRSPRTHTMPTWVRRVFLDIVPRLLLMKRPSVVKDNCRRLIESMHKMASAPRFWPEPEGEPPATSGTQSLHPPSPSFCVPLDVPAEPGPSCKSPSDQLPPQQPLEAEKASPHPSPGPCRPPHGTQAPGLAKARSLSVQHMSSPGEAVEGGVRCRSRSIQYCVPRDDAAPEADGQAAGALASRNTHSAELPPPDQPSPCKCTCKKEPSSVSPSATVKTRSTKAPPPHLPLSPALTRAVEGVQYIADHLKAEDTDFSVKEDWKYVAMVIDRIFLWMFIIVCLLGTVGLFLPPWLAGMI
Chain of D(3) dopamine receptor (P35462 whole entry): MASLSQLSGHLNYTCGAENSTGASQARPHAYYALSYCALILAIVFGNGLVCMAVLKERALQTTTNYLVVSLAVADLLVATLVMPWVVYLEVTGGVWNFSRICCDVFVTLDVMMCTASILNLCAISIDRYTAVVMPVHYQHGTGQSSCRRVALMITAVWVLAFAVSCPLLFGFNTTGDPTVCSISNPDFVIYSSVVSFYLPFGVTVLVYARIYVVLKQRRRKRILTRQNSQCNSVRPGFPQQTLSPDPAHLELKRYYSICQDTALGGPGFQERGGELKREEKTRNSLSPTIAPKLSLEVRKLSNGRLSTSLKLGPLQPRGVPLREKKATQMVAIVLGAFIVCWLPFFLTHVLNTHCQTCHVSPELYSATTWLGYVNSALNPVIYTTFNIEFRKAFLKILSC
Chain of Histamine H3 receptor (Q9Y5N1 whole entry): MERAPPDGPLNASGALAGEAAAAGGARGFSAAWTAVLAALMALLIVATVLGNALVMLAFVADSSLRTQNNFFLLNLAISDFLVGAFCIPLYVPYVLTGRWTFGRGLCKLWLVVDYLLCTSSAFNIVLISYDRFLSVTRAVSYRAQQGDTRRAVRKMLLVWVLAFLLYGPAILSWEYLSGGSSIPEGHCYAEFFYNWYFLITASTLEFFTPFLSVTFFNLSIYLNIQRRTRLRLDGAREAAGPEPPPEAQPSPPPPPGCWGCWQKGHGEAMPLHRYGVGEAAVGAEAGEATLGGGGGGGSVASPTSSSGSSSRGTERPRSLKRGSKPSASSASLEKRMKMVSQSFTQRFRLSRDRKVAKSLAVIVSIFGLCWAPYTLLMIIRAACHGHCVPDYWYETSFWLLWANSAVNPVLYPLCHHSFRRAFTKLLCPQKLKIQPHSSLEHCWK
Chain of Delta-type opioid receptor (P41143 whole entry): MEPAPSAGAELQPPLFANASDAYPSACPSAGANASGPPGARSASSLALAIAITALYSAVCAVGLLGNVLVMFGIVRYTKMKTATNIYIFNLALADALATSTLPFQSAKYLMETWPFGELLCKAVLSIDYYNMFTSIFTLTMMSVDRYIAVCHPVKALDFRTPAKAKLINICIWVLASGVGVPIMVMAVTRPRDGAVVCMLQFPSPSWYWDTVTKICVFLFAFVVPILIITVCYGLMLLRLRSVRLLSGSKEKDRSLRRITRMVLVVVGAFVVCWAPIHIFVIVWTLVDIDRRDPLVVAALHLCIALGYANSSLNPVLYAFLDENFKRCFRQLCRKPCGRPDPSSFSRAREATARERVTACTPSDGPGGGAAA
Chain of Muscarinic acetylcholine receptor M3 (P20309 whole entry): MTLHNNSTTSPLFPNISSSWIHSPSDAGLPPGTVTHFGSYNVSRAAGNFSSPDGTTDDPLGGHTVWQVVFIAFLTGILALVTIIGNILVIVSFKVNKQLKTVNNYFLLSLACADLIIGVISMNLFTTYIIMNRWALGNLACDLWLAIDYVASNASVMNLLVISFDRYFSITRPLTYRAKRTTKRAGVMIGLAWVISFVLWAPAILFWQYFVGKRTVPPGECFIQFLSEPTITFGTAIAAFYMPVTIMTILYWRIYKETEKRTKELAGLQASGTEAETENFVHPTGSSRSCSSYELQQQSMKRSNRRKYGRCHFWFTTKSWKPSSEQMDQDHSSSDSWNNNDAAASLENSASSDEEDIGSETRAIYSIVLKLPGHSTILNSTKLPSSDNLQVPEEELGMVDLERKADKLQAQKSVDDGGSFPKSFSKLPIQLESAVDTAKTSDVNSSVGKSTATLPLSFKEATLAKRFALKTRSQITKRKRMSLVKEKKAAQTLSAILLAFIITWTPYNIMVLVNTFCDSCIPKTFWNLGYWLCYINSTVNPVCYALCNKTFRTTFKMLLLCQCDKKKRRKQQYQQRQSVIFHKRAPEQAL

Row | SMILES | AC50 (Histamine H3 receptor) | AC50 [1] | AC50 [2] | AC50 (Motilin receptor) | AC50 [3] | AC50 [4] | AC50 [5] | AC50 (Estrogen receptor) | AC50 [6] | AC50 (D(3) dopamine receptor) | AC50 (Adenosine receptor A1)
1 | N#Cc1ccccc1-c1cc(-c2ccccn2)cn(-c2ccccc2)c1=O | > 30 µM | > 30 µM | > 30 µM | > 30 µM | > 30 µM | > 30 µM | > 30 µM | > 30 µM | > 30 µM | > 30 µM | > 30 µM
2 | COc1ccc(/C=C/C(=O)Nc2ccccc2C(=O)O)cc1OC | > 30 µM | > 30 µM | > 30 µM | > 30 µM | > 30 µM | > 30 µM |  | > 30 µM |  | > 30 µM | > 30 µM
3 | O=C(CCCN1CCC(n2c(O)nc3ccccc32)CC1)c1ccc(F)cc1 [BENPERIDOL] | 18 µM | > 30 µM | > 30 µM | 26 µM |  | > 30 µM | 12 µM | > 30 µM | 0.85 µM | 0.0053 µM | > 30 µM
4 | CCC(=O)OCC(=O)[C@@]1(OC(=O)CC)[C@@H](C)C[C@H]2[C@@H]3CCC4=CC(=O)C=C[C@]4(C)[C@@]3(F)[C@@H](O)C[C@@]21C [BETAMETHASONE DIPROPIONATE] | > 30 µM | > 30 µM |  | > 30 µM | > 30 µM | > 30 µM | > 30 µM | > 10 µM | > 30 µM | > 30 µM | > 30 µM
5 | CS(=O)(=O)OCCCCOS(C)(=O)=O [BUSULFAN] | > 30 µM | > 30 µM | > 30 µM | > 30 µM | > 30 µM | > 30 µM |  | > 30 µM |  | > 30 µM | > 30 µM
6 | C=CC1=C(C(=O)O)N2C(=O)[C@@H](NC(=O)/C(=N\OCC(=O)O)c3csc(N)n3)[C@H]2SC1 [CEFIXIME] | > 30 µM |  |  | > 30 µM | > 30 µM | > 30 µM |  | > 30 µM |  |  | > 30 µM
7 | CC(=O)OCC(CCn1cnc2cnc(N)nc21)COC(C)=O [FAMCICLOVIR] | > 10 µM | > 30 µM | > 30 µM | > 10 µM | > 10 µM | > 10 µM |  | > 30 µM |  | > 10 µM | > 30 µM
8 | Nc1ccn([C@@H]2O[C@H](CO)[C@@H](O)C2(F)F)c(=O)n1 [GEMCITABINE] | > 10 µM | > 30 µM | > 30 µM | > 10 µM | > 10 µM | > 10 µM |  | > 30 µM |  | > 30 µM | > 30 µM
9 | COC1=C(OC)C(=O)C(CCCCCCCCCCO)=C(C)C1=O [IDEBENONE] | > 10 µM | > 10 µM | > 10 µM | > 10 µM | 8.5 µM | > 10 µM |  | > 30 µM |  | > 10 µM | > 30 µM
10 | CC(=O)Nc1c(I)c(C(=O)N[C@H]2C(O)O[C@H](CO)[C@@H](O)[C@@H]2O)c(I)c(N(C)C(C)=O)c1I (stereo partly specified) [METRIZAMIDE] |  | > 30 µM | > 30 µM | > 10 µM | > 10 µM | > 10 µM | > 30 µM | > 10 µM | > 10 µM | > 30 µM | > 10 µM
11 | CC(=O)O[C@H]1C[C@@H]2CC[C@@H]3[C@H](CC[C@@]4(C)[C@H]3C[C@H]([N+]3(C)CCCCC3)[C@@H]4OC(C)=O)[C@@]2(C)C[C@@H]1[N+]1(C)CCCCC1 [PANCURONIUM] |  | > 30 µM | > 30 µM | > 10 µM | > 10 µM | > 10 µM | > 30 µM | > 10 µM | > 10 µM | > 30 µM | > 10 µM
12 | CCn1cc(C(=O)O)c(=O)c2cc(F)c(N3CCN(C)CC3)cc21 [PEFLOXACIN] | > 30 µM | > 30 µM | > 30 µM | > 30 µM | > 30 µM |  |  | > 30 µM |  | 3.6 µM | > 30 µM
13 | CCCNC(C)C(=O)Nc1ccccc1C (stereo unspecified) [PRILOCAINE] | > 30 µM | > 30 µM | > 30 µM | > 30 µM | > 30 µM | > 30 µM |  | > 30 µM |  | > 30 µM | > 30 µM
14 | CN1CCN(c2c(F)cc3c(=O)c(C(=O)O)cn4c3c2SCC4)CC1 [RUFLOXACIN] | > 30 µM | > 30 µM | > 30 µM | > 30 µM | > 30 µM | > 30 µM | > 30 µM |  | 9.8 µM | > 30 µM | > 30 µM
15 | [H]/N=C(/N)N[C@H]1[C@H](O)[C@@H](O)[C@H](O[C@@H]2O[C@@H](C)[C@](O)(C=O)[C@H]2O[C@@H]2O[C@@H](CO)[C@H](O)[C@@H](O)[C@@H]2NC)[C@@H](N/C(N)=N\[H])[C@@H]1O [STREPTOMYCIN] | > 30 µM | > 30 µM | > 30 µM | > 30 µM | > 30 µM | > 30 µM |  | > 30 µM |  | > 30 µM | > 30 µM
16 | COc1c(O[C@@H]2O[C@H](CO)[C@@H](O)[C@H](O)[C@H]2O)cc2c(c1OC)-c1ccc(SC)c(=O)cc1[C@@H](NC(C)=O)CC2 [THIOCOLCHICOSIDE] | > 30 µM | > 30 µM | > 30 µM | > 30 µM | > 30 µM | > 30 µM | > 30 µM |  | > 30 µM | > 30 µM | > 30 µM
17 | Cc1cccc(N(C)C(=S)Oc2ccc3ccccc3c2)c1 [TOLNAFTATE] |  | > 30 µM | > 30 µM | > 10 µM | > 30 µM | > 10 µM |  | > 30 µM |  | > 30 µM | > 10 µM
